From patent publication US4389412A, “Substituted cyclopropanecarboxylic acid esters and pesticidal compositions containing the same as active ingredient” (priority 1979, dated 1983) come the findings set out here.

For one data set, the system named is pests. The data set can be described thus: Pesticidal effectiveness, overall. The settings on record: in vivo. An excerpt: The pesticidal activity of the compounds according to this invention against green rice leafhoppers (Nephotettix cincticeps Uhler), rice stem borers (Chilo suppressalis Walker), tobacco cutworms (Prodenia litura […]) and houseflies (Musca domestica), as examples of the pests against which the same compounds are considered effective, the acute toxicity data on the same compounds as determined in rat by the oral route and the median tolerance limit (TLm) data on the same compounds as determined in killifish (Orizias latipes) and guppies (Lebistes reticulatus) are shown in Table 1 alongside the corresponding values for various control compounds. The pesticidal effects were determined by the procedures set forth in Test Examples 1 through 4, while the acute toxicity to rat was determined by the procedure set forth in Test Example 9 and the toxicity to fish was determined by the procedures set forth in Test Examples 6 and 7, all those Examples appearing hereinafter.

Another data set concerns carp and water flea. The data set can be described thus: Fish toxicity ranking according to Japanese regulations. Also on record: species or system Cyprinus carpio L; Daphnia pulex. The settings on record: from TLm for carp and water flea. In outline:
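Ranking per Japanese agrochemical regulations from median tolerance limits: A = carp TLm (48 hrs.) >10 ppm and water flea TLm (3 hrs.) >0.5 ppm; B = carp 10-0.5 ppm, or carp >10 ppm with water flea <0.5 ppm; C = carp TLm (48 hrs.) <0.5 ppm.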

Data set [1] relates to water-fleas (Daphnia pulex). The data set can be described thus: Toxicity test with water-fleas. Conditions: 25±1° C. The class given is in vivo. On the procedure:
Toxicity test with water-fleas (Daphnia pulex)
An acetone solution of one of the test compounds as mentioned in Table 10 and Tween-20 (the same surfactant as mentioned hereinbefore) was prepared. To 100 ml of water in a high-walled dish (9 cm in diameter, 7 cm deep) was added the above acetone solution. The mixture was stirred thoroughly to prepare an aqueous solution containing the test compound in a predetermined concentration. This was used as a test water. Twenty water-fleas (Daphnia pulex) were released into each test water which was maintained at 25±1° C. After 6 hours, the water-fleas were examined for deaths. The TLm (median tolerance limit, ppm) was determined.

The subject of data set [2] is brown planthoppers (Nilaparvata lugens Stal). Description: Utility Example-1: LC50 on adult brown planthoppers on dipped rice plants. The settings on record: 25° C.; for Pesticidal activity LC50: 24 hours, 1440 min. The class given is in vivo. In a few lines:
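Rice plants 4 weeks from sowing were dipped in water-diluted 1% emulsifiable concentrate at set concentrations and air-dried. Thirty adult N. lugens were caged on each pot, held at 25 °C.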

The next data set concerns fish. The data set can be described thus: Fish toxicity safety factor (TLm divided by maximum concentration in cover water). Conditions: TLm / maximum concentration in cover water at LC50 application (100 l per 10 ares, 5 cm depth). Also on record: species or system carp. In outline:
(§1)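 Calculated index: carp TLm (ppm) divided by the maximum compound concentration expected in paddy cover water. That concentration assumes 100 l of solution at the pest LC50 applied per 10 ares onto 5 cm deep cover water, all of it entering the water.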

For a further data set, the system named is carp (Cyprinus carpio L). The data set can be described thus: Fish toxicity test with carp. The class given is in vivo. Conditions: 48 hrs., 21±1° C.; 2880 min. In outline:
(§2)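 Compound in acetone with Tween-20 dispersed in 50 L aerated water at a set concentration; five carp (about 6 g, 6 cm) exposed at 21±1° C. Deaths checked after 48 h, and TLm (median tolerance limit, ppm) determined.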

For data set [3], the system named is green rice leafhoppers (Nephotettix cincticeps Uhler). The data set can be described thus: Mortality test with green rice leafhoppers by topical application method. On the procedure:
Mortality test with green rice leafhoppers (Nephotettix cincticeps Uhler) by topical application method
Then, the insects were kept at 25° C. with access to rice plant seedlings. The insects were used in groups of 15 individuals each.

The test system of data set [4] is houseflies (Musca domestica). Description: Mortality test with houseflies by topical application method. The settings on record: 24 h.
Data set [5] can be described thus: Fish toxicity safety factor (TLm divided by maximum concentration in cover water). Also on record: species or system carp. The settings on record: in vivo, TLm / maximum concentration in cover water at LC50 application (100 l per 10 ares, 5 cm depth). In outline:
as §1

Data set [6] concerns rice stem borers (Chilo suppressalis Walker). The data set can be described thus: Mortality test with rice stem borers by topical application method. The class given is in vivo. The settings on record: 24 h. On the procedure: Mortality test with rice stem borers (Chilo suppressalis Walker) by topical application method
Using a microsyringe, 0.5 μl of the above solution was applied to the thoracic abdominal region of each final-instar larva of rice stem borer (Chilo suppressalis Walker). […] The test larvae were used in groups of 20 individuals each.

Data set [7] can be described thus: Acute toxicity test in rat by the oral route. The class given is in vivo. Conditions: in vivo, male rat, in olive oil, after 7 days. An excerpt: Acute toxicity test in rat by the oral route
Data set [8] has as its system tobacco cutworms (Prodenia litura Fabricius). Description: Mortality test with tobacco cutworms by topical application method. The class given is in vivo. Conditions: 24 h, read-out: Pesticidal effect, tobacco cutworm. On the procedure:
Mortality test with tobacco cutworms (Prodenia litura Fabricius) by topical application method
Using a microsyringe, 0.5 μl of the above solution was dripped onto the thoracic adbominal region of each of 3-instar tobacco cutworm (Prodenia litura Fabricius) larvae. […] The test larvae were used in groups of 20 individuals each.

In the next data set the test system is crop plants. Description: Phytotoxicity test. The class given is in vivo. Conditions: 2,000 ppm solution on leaves, after 10 days. An excerpt: A 2,000 ppm solution of each of the cis- and trans-isomers and a 50:50 mixture of cis- and trans-isomers of Compound (1) and of Compound (2), and a 50:50 mixture of the cis- and trans-isomers of Compound (B) and Compound (E) was applied to the leaves of the following crop plants.
After 10 days, the crop plants were examined for their phytotoxicities.

The nature of data set [9]: Fish toxicity test with carp. The settings on record: carp, water, 48 hrs., 21±1° C.; read-out: TLm, Carp (48 hrs.). The class given is in vivo, Cyprinus carpio L. In a few lines: as §2
Data set [10] deals with guppies (Lebistes reticulatus). Description: Fish toxicity test with guppies. Conditions: Table 1; 48 hrs. The class given is in vivo. On the procedure: (§3) Fish toxicity test with guppies (Lebistes reticulatus)
(§4) To 5 liters of water were added 250 mg of Sorpol SM-200 (trademark, Toho Chemical Co., Ltd.) as a surfactant and 2.5 ml of an acetone solution containing one of the test compounds in a predetermined concentration. The mixture was stirred thoroughly to prepare a test water. Ten female guppies (Lebistes reticulatus) of from 3 to 4 months of age were released into the test water which was maintained at 20° C. and the TLm (median tolerance limit, ppm) was determined.

The nature of data set [11]: Fish toxicity test with guppies. The class given is in vivo, Lebistes reticulatus. Conditions: guppy, water, guppies, 20° C., read-out: TLm (48 hrs.). On the procedure:
as §3, §4

Setting [12] is: Nephotettix cincticeps, in Oryza sativa, 24 h.

≈ marks a conversion by molar mass, not a printed value. Entries after “also recorded” stand apart in the source; their conditions may differ.

Consider `CC1(C)C(C=C(Cl)Cl)C1C(=O)OCc1cccc(Oc2ccc(Cl)cc2)c1` (centres unmarked) [Compound (1), 3-(4-chlorophenoxy)benzyl 2,2-dimethyl-3-(2,2-dichlorovinyl)cyclopropanecarboxylate], for which the “pesticidal effectiveness in words” value with pests is “excellent pesticidal activity against both the sensitive and resistant strains of pests; also recorded: at least equivalent or superior in pesticidal effectiveness to control compounds (A), (B), (C), (D), (E), (F), (G) and (H)”.

On to `C#CC(OC(=O)C1C(C=C(Cl)Cl)C1(C)C)c1cccc(Oc2ccc(Cl)cc2)c1` (stereo not drawn) [Compound (2) cis-/trans- = 10:90], for which, in the data set with carp and water flea, the Ranking result was “B (TLm (48 hrs.) value 10-0.5 ppm for carp; or TLm (48 hrs.) value >10 ppm for carp and TLm (3 hrs.) value <0.5 ppm for water flea, wherein appreciable toxicity to fishes is not observed by usual application but may be observed when applied to wide area at one time.)”. The “TLm, Water-flea (6 hrs.)” value in [1] is recorded as greater than 40 ppm. The “Pesticidal activity LC50” value in [2] turned out to be 180 ppm. In addition, the “Fish toxicity safety factor” value in the data set on fish came out at 20. In addition, the “TLm, Carp (48 hrs.)” value with carp (Cyprinus carpio L) was 7.2 ppm.

Consider `C#CC(OC(=O)C1C(C=C(Cl)Cl)C1(C)C)c1cccc(Oc2ccc(Cl)cc2)c1` (stereo not drawn) [Compound (2) cis-/trans- = 30:70], for which the Ranking result in the data set with carp and water flea was “B (TLm (48 hrs.) value 10-0.5 ppm for carp; or TLm (48 hrs.) value >10 ppm for carp and TLm (3 hrs.) value <0.5 ppm for water flea, wherein appreciable toxicity to fishes is not observed by usual application but may be observed when applied to wide area at one time.)”. For the same compound, the “TLm, Water-flea (6 hrs.)” value in data set [1] was greater than 40 ppm. In addition, the “Pesticidal activity LC50” value in data set [2] is 180 ppm. The “Fish toxicity safety factor” value in the data set with fish was found to be 13.6. In addition, the “TLm, Carp (48 hrs.)” value with carp (Cyprinus carpio L) is on record as 4.9 ppm. Also, the “LD50 (median lethal dose)” value in [3] (green rice leafhoppers, 1440 min) worked out at 0.40 µg/g.

Take `C#CC(OC(=O)C1C(C=C(Cl)Cl)C1(C)C)c1cccc(Oc2ccc(Cl)cc2)c1` (stereo not drawn) [Compound (2), 3-(4-chlorophenoxy)-α-ethynylbenzyl 2,2-dimethyl-3-(2,2-dichlorovinyl)cyclopropanecarboxylate]: in the data set with pests, the “pesticidal effectiveness in words” value was “excellent pesticidal activity against both the sensitive and resistant strains of pests; also recorded: at least equivalent or superior in pesticidal effectiveness to control compounds (A), (B), (C), (D), (E), (F), (G) and (H)”.

Regarding `CC(C)C(C(=O)OC(C#N)c1cccc(Oc2ccccc2)c1)c1ccc(Cl)cc1` (centres unmarked) [Compound (E), Fenvalerate], the Ranking entry with carp and water flea is “C (TLm (48 hrs.) value <0.5 ppm for carp, wherein toxicity to fishes is so strongly observed by usual application that both the application method and application area are strictly restricted.)”. Besides, in data set [4], the mortality at 0.5 µg/female amounted to 100% and the mortality at 1 µg/female came to 100%. Also, the mortality at 0.001 mg in data set [4] (read-out: Pesticidal effect, housefly) is 100%. In addition, in data set [2] (Nilaparvata lugens, 24 h, read-out: Pesticidal activity LC50), the LC50 was 1550 µg/mL (≈ 3690 µM). Further, the selectivity ratio in data set [5] amounted to 0.001. In data set [6], the mortality at 1 µg/larva was 100% and the mortality at 10 µg/larva came out at 100%. Moreover, in [6] (read-out: Pesticidal effect, rice stem borer), the mortality at 0.001 mg stood at 100%. Besides, in data set [7], the LD50 (usually the dose at which mortality reaches 50%) at 168 h turned out to be 440 mg/kg. In addition, in [8], the mortality at 0.0001 mg came to 100%. In the data set on crop plants, the phytotoxicity entry is “caused chlorosis to each one of the crop plants and did large damage to the same”. Moreover, in data set [9], the LC50 at 48 h was 0.0032 µg/mL (≈ 0.00762 µM). For the same compound, in data set [10], the “Toxicity to fish TLm, guppy” value is listed as less than 0.5 ppm. Further, the LC50 at 48 h in [11] was less than 0.5 µg/mL. Besides, in [3] (setting [12]), the mortality at 0.01 µg/female was determined as 100%, the mortality at 0.1 µg/female is 100% and the mortality at 1 µg/female was 100%. Also, the mortality at 10 ng in [3] (Nephotettix cincticeps, in Oryza sativa, 24 h, read-out: Pesticidal effect, green rice leafhopper) is 100%.
